According to PMC13130965, “An Integrated Approach Combining Regulatory Tests in tg(cyp19a1b:GFP) Zebrafish Embryos to Assess Toxicity, Developmental Effects, and Estrogenic Activity of Chemicals: A Case Study with Bisphenol A Substitutes” (Environmental Science & Technology, 2026):
Values after ≈ are worked out from the molar mass of the structure shown. Where two headings read alike, the source gives them in different places.

Legend:
[1] = tested on: cyp19a1b:GFP (brain aromatase) in tg(cyp19a1b:GFP) zebrafish embryos; assay: EASZY assay (OECD TG 250): GFP induction; format: in vivo, zebrafish (Danio rerio); conditions: Danio rerio, 96 h, 96 h; for EC50: read-out: EASZY relative EC50, nominal
Protocol: The tests were conducted according to OECD TG 250. Newly fertilized cyp19a1b-GFP eggs were transferred to glass crystallizing dishes and exposed for 96 h in a humidified climate chamber (27 ± 2 °C) under semistatic conditions with a total renewal of the test solutions each day. Each condition consisted of three crystallizing dishes, each containing 7 embryos and 15 mL of test medium. Embryos were exposed to a range of nonlethal concentrations of chemicals as determined previously based on the refined FET assays. The tested concentration ranges of bisphenols, along with a control with the same percentage of solvent alone, are summarized in Table S2. All exposure concentrations are reported as nominal. At the end of exposure, transgenic zebrafish embryos were collected for fluorescence imaging to quantify GFP intensity. At the end of the experiments, all living zebrafish embryos were euthanized as described above. […] ICI was added together with bisphenols from 0 to 4 dpf (days post fertilization). […] In all coexposure experiments, the final DMSO concentration was 0.02% (v/v).
For fluorescence imaging, GFP fold induction was expressed as mean ± SEM, and values were compared to the DMSO control using one-way ANOVA followed by Dunnett’s posthoc test. […]

hERβ [2] = tested on: hERβ; parameters: method as in Grimaldi et al.; conditions: HELN-hERβ; ref Grimaldi et al.; cited from earlier work
[3] = Refined Fish Embryo Acute Toxicity test (FET, OECD TG 236): mortality; format: in vivo, zebrafish (Danio rerio); conditions: tg(cyp19a1b:GFP), zebrafish, in vivo, other: waterborne exposure of embryos in test solution, LC50 (96h) experimental (FET test), nominal, brackets 95% CI
Protocol: (§1) Exposures were carried out in presaturated 24-well plates containing one embryo per well in 2 mL of test solution. The exposure was performed under semistatic conditions, with daily renewal of the test solution. The concentration ranges tested, along with a control with the same percentage of solvent alone, are recapitulated in Table S1. All exposure concentrations are reported as nominal. During the time course of the refined FET tests, embryos were observed after 8 h (coagulation), 24 h (lack of somite formation and nondetachment of the tail), and 48, 72, and 96 h of exposure (nondetection of the heartbeat). […] Moreover, hatching rate and nonlethal developmental effects (i.e., yolk deformity, growth retardation, spontaneous movement, edema, blood tail circulation, heart rate, pigmentation, head and tail/spinal malformations, and hemorrhage) were monitored daily. Tail/spinal malformations included lordosis, kyphosis, scoliosis, and reduced tail length.
(§2) This analysis considered all nonlethal developmental end points monitored in the refined FET assay (see above), except effects on hatching, pigmentation, spontaneous movement, and blood circulation. A teratogenic index (TI) was then calculated as the ratio LC50/EC50.
(§3) Baseline toxicity and experimental FET LC50 values were used to calculate toxic ratios (TR = predicted baseline toxicity LC50/experimental FET LC50). Compounds with TR < 10 were considered as baseline toxicants.

[4] = cited from earlier work
zebrafish ERβ2 (zfERβ2) = zebrafish ERβ2 (zfERβ2) (Danio rerio, UniProt Q7ZU32); assay: ZELH-zfERβ2 luciferase reporter gene assay; format: cell-based; conditions: read-out: maximal efficacy
Protocol: The ZELH-zfERs reporter cell line was previously established after a two-step stable transfection of the zebrafish hepatic cell line ZFL with the luciferase gene under the control of ERE (yielding the ZELH cell line that expresses no functional ER) and the zebrafish ER subtype β2 (yielding the ZELH-zfERβ2 cell line). Cells were cultured, exposed to chemicals for 72 h, and measured for luciferase activity exactly as previously described. , For each chemical, serial dilutions were prepared in DMSO and tested in three independent experiments. The final DMSO concentration in the culture medium was always 0.1% v/v. All tested concentrations refer to nominal concentrations.

[5] = tested on: zfERs / cyp19a1b:GFP in tg(cyp19a1b:GFP) zebrafish embryos; assay: EASZY coexposure with ER antagonist ICI 182,780; format: in vivo, zebrafish (Danio rerio); conditions: also with 48 h ICI pre-exposure
Protocol: The tests were conducted according to OECD TG 250. Newly fertilized cyp19a1b-GFP eggs were transferred to glass crystallizing dishes and exposed for 96 h in a humidified climate chamber (27 ± 2 °C) under semistatic conditions with a total renewal of the test solutions each day. Each condition consisted of three crystallizing dishes, each containing 7 embryos and 15 mL of test medium. Embryos were exposed to a range of nonlethal concentrations of chemicals as determined previously based on the refined FET assays. The tested concentration ranges of bisphenols, along with a control with the same percentage of solvent alone, are summarized in Table S2. All exposure concentrations are reported as nominal. At the end of exposure, transgenic zebrafish embryos were collected for fluorescence imaging to quantify GFP intensity. At the end of the experiments, all living zebrafish embryos were euthanized as described above. For coexposure experiments, embryos were exposed to bisphenols in the presence of 1 μM of the ER antagonist ICI 182,780 (ICI). ICI was added together with bisphenols from 0 to 4 dpf (days post fertilization). […] In all coexposure experiments, the final DMSO concentration was 0.02% (v/v).

[6] = tested on: tg(cyp19a1b:GFP) zebrafish embryos; assay: Refined FET: developmental effects / malformations; format: in vivo, zebrafish (Danio rerio); conditions: nominal; for EC50: Danio rerio, end of 96 h exposure, read-out: EC50 malformations (cumulative sublethal end points); for LOEC deformity of yolk: at least 10% of embryos affected
Protocol: as §1, §2

[7] = tested on: tg(cyp19a1b:GFP) zebrafish embryos; assay: Refined Fish Embryo Acute Toxicity test (FET, OECD TG 236): mortality; format: in vivo, zebrafish (Danio rerio); conditions: nominal, brackets 95% CI
Protocol: as §1, §2, §3

Adult Zebrafish = conditions: ref Ren et al. (2017); cited from earlier work
Zebrafish embryos = conditions: cited from earlier work
hERβ [8] = tested on: hERβ; parameters: method as in Pelch et al.; conditions: HepG2-hERβ; ref Pelch et al.; cited from earlier work
[9] = 120h-exposure, ref Qiu et al. (2021)
[10] = zebrafish embryos, ref Ren et al. (2017)

Sequence of zebrafish ERβ2 (zfERβ2) (Q7ZU32 1-553): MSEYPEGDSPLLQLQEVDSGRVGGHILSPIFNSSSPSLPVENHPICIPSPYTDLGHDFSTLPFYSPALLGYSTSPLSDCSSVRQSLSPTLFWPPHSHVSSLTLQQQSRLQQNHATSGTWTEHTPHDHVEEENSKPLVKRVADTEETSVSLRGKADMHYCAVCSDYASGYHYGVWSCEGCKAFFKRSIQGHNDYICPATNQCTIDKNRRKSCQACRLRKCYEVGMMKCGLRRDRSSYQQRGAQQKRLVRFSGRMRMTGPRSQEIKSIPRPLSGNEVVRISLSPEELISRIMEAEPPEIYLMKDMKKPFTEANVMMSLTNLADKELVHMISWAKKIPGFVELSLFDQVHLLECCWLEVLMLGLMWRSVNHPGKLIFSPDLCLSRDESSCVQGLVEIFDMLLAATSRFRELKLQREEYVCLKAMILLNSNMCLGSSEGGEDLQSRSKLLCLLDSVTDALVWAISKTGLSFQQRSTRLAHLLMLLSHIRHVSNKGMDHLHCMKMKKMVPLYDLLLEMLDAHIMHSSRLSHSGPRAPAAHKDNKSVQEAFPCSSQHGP

Oc1ccc(C(=C(Cl)Cl)c2ccc(O)cc2)cc1 [BPC-Cl, 4-[2,2-dichloro-1-(4-hydroxyphenyl)ethenyl]phenol]
EC50 [1]: 0.015 µg/mL (≈ 0.0534 µM) | EC50 (hERβ [2]): 46 nM | maximal efficacy (hERβ [2]): 35% | LC50 at 96 h [3]: 4.18 µg/mL (≈ 14.9 µM) | Log Kow ([4]; ref ChemSpider): 4.25 | Emax (zebrafish ERβ2 (zfERβ2)): 61% | effect of ICI 1 μM on bisphenol-induced GFP [5]: unable to block | EC50 [6]: 1.28 µg/mL (≈ 4.55 µM) | LOEC edema [6]: 0.99 mg/L | LOEC heart rate disruption [6]: 8.89 mg/L | LOEC hemorrhage [6]: 2.96 mg/L | LOEC no blood tail circulation [6]: 8.89 mg/L | LOEC no spontaneous movement [6]: 2.96 mg/L | LOEC no/Less pigmentation [6]: 8.89 mg/L | LOEC tail/spinal malformations [6]: 8.89 mg/L | LOEC deformity of yolk [6]: 0.99 mg/L

Oc1ccc(Cc2ccc(O)cc2)cc1 [BPF, 4-[(4-hydroxyphenyl)methyl]phenol]
EC50 [1]: 0.407 µg/mL (≈ 2.03 µM) | EC50 (hERβ [2]): 952 nM | maximal efficacy (hERβ [2]): 100% | LC50 (96h) experimental (FET test) [7]: 35.07 [33.99;35.07] mg/L | LC50 at 96 h [3]: 35 µg/mL (≈ 175 µM) | Log Kow ([4]; ref Adamovsky et al.): 2.91 | LC50(24h) (Adult Zebrafish): 10.10 µg/mL (≈ 50.4 µM) | LC50(48h) (Adult Zebrafish): 9.86 µg/mL (≈ 49.2 µM) | LC50(72h) (Adult Zebrafish): 9.51 µg/mL (≈ 47.5 µM) | LC50(96h) (Adult Zebrafish): 9.51 µg/mL (≈ 47.5 µM) | Emax (zebrafish ERβ2 (zfERβ2)): 71% | Hatching success EC50(72h) (Zebrafish embryos; 4-days exposure, ref Moreman et al. (2017)): 14 (0.41) mg/L | LOEC (body length, GnRH3 neurons, reproductive neuroendocrine-related genes and hormones) (Zebrafish embryos; [9]): 100 µg/L | NOEC (body length, GnRH3 neurons, reproductive neuroendocrine-related genes and hormones) (Zebrafish embryos; [9]): 1 µg/L | NOEC (developmental toxicity) (Zebrafish embryos; Wildtype (AB/TL), 1-6 dpf static + 6-9 dpf semistatic, ref Catron et al. (2018; 2019)): 15.3 µM | LC50(96h) (Zebrafish embryos; Wildtype AB, 120h-exposure, ref Yang et al. (2017)): 10.030 µg/mL (≈ 50.1 µM) | mortality (Zebrafish embryos; at 20 mg/L, ref Tišler et al. (2016)): 20% | LC50 (Zebrafish embryos; read-out: LC50(96h), Wildtype AB, 96h-exposure, ref Arrokhman et al. (2023)): 120000 nM | Edema EC50(48h) (Zebrafish embryos; ref Tišler et al. (2016)): 10.7 (9.4-12.2) mg/L | Hatching inhibition EC50(72h) (Zebrafish embryos; ref Tišler et al. (2016)): 6.8 (5.8-8.5) mg/L | Pigmentation EC50(48h) (Zebrafish embryos; ref Tišler et al. (2016)): 1.1 (0.92-1.3) mg/L | LC50 (96h) literature (Zebrafish embryos; zebrafish embryos, 95% CI, ref Mu et al.): 19.6 [18.47–20.67] mg/L | LC50 (96h) literature (Zebrafish embryos; zebrafish embryos, parentheses SEM, ref Moreman et al.): 32 (0.55) mg/L | LC50 (96h) literature (Zebrafish embryos; zebrafish embryos, ref Arrokhman et al.): 24 mg/L (≈ 120 µM) | LC50 (96h) literature (Zebrafish embryos; zebrafish embryos, ref Gao et al.): 24.5 mg/L (≈ 122 µM) | LC50 (96h) literature (Zebrafish embryos; zebrafish embryos, ref Gu et al.): 7.40 mg/L (≈ 37 µM) | Body length LOEC (Zebrafish embryos; [10]): 8 mg/L | Body length NOEC (Zebrafish embryos; [10]): 6 mg/L | LC50(24h) (Zebrafish embryos; [10]): 9.13 µg/mL (≈ 45.6 µM) | LC50(48h) (Zebrafish embryos; [10]): 8.93 µg/mL (≈ 44.6 µM) | LC50(72h) (Zebrafish embryos; [10]): 8.56 µg/mL (≈ 42.7 µM) | LC50 (96h) literature (Zebrafish embryos; zebrafish embryos, ref Ren et al.): 7.40 mg/L (≈ 37 µM) | EC50 [6]: 17.2 µg/mL (≈ 85.9 µM) | LOEC edema [6]: 15 mg/L | LOEC head malformations [6]: 7.5 mg/L | LOEC heart rate disruption [6]: 60 mg/L | LOEC hemorrhage [6]: 7.5 mg/L | LOEC no blood tail circulation [6]: 60 mg/L | LOEC no spontaneous movement [6]: 60 mg/L | LOEC tail/spinal malformations [6]: 30 mg/L | LOEC deformity of yolk [6]: 15 mg/L

C=CCOc1ccc(S(=O)(=O)c2ccc(O)cc2)cc1 [BPS-MAE, 4-(4-prop-2-enoxyphenyl)sulfonylphenol]
minimal effective concentration ([1]; read-out: EASZY LOEC (GFP induction), nominal): 0.625 µg/mL | EC50 [1]: 0.327 µg/mL (≈ 1.13 µM) | LC50 at 96 h [3]: 20.1 µg/mL (≈ 69.1 µM) | maximal efficacy (hERβ [8]): 6% | Log Kow ([4]; ref ChemSpider): 3.13 | effect of ICI 1 μM on bisphenol-induced GFP [5]: unable to block | EC50 [6]: 6.84 µg/mL (≈ 23.6 µM) | LOEC edema [6]: 33.3 mg/L | LOEC heart rate disruption [6]: 33.3 mg/L | LOEC no blood tail circulation [6]: 33.3 mg/L | LOEC no spontaneous movement [6]: 33.3 mg/L | LOEC no/Less pigmentation [6]: 33.3 mg/L | LOEC tail/spinal malformations [6]: 33.3 mg/L
